The numbers were not newly measured in US20250099475A1, “METHODS OF TREATING HYPERTENSION BY PERIODIC SUPPRESSION OF ALDOSTERONE SYNTHASE” (Mineralys Therapeutics, Inc., priority 2022, published 2025), which cites them from elsewhere.

Structures are written as SMILES.

For this data set the following is noted: in vivo; cited from earlier work.

In the case of `CC(=O)S[C@@H]1CC2=CC(=O)CC[C@]2(C)[C@H]2CC[C@@]3(C)[C@@H](CC[C@@]34CCC(=O)O4)[C@H]12` [Spironolactone], the risk of hyperkalemia is reported as at most 10%.
